In this test the test system is w836 DNA (146 bp). As to the kind of experiment: DNA alkylation selectivity and efficiency, thermally-induced strand cleavage of w836 DNA. It is filed as biochemical. The protocol:
FIG. 6 illustsrates thermally-induced strand cleavage of w836 DNA (146 bp, nucleotide nos. 5189-91): DNA-agent incubation for 24 h ((−)-iso-CBI-TMI) at 25° C., removal of unbound agent and 30 min of thermolysis (100° C.), followed by denaturing 8% PAGE and autoradiography; lane 1, control DNA; lanes 2-5, Sanger G, C, A, and T sequencing reactions; lanes 6-8 (−)-iso-CBI-TMI ([…] to 1×10^−5 M); lanes 9-10, (+)-duocarmycin SA (1×10^−5 to 1×10^−6 M); lanes 11-12, (+)-iso-CBI-TMI (1×10^−2 and 1×10^−3).
DNA Alkylation Selectivity and Efficiency: The DNA alkylation properties of the agents were examined within w794 and w836 duplex DNA for which comparative results are available for related agents. (Boger, D. L., et al., J. Am. Chem. Soc. 1994, 116, 11335; Boger, D. L., et al., J. Am. Chem. Soc. 1994, 116, 6461; and Boger, D. L., et al., J. Am. Chem. Soc. 1995, 117, 11647) The alkylation site identification and the assessment of the relative selectivity among the available sites were obtained by thermally-induced strand cleavage of the singly 5′ end-labeled duplex DNA after exposure to the agents. […]

We go through one molecule from US6486326B2, “iso-CBI and iso-CI analogs of CC-1065 duocarmycins” (The Scripps Research Institute, priority 1997, dated 2002).

Take `COc1cc2cc(C(=O)N3CC4CC45C(=O)c4ccccc4C=C35)[nH]c2c(OC)c1OC` (single isomer, unassigned; (-)) [(−)-iso-CBI-TMI, 2-[(5,6,7-Trimethoxyindol-2-yl)carbonyl]-1,2,9,9a-tetrahydrocyclopropa[c]benzo[f]indol-8-one]: the “DNA alkylation sites / selectivity” value is “same sites as (+)-duocarmycin SA”.
